Test [1] has as its target T1, D2R (Homo sapiens, UniProt P14416). The test is described as follows: HTRF competitive binding screening of virtual hits at 10 µM (normalized decrease in fluorescence). The settings on record: for Normalized Decrease in Fluorescence ± SD: Table 3, 10 µM, n = 4, normalized to the control; for NDF (normalized decreased fluorescence) ± SD: Table S9, all selected virtual hits, n = 4, 10 µM.

Test [2] addresses T1, D2R. The test is described as follows: HTRF KI determination of the selected ligands. Format: binding. The conditions noted are these: for Fold Difference in comparison to the determined KI of dopamine / pKi: Table 4; for pKi: n = 6. How it is done: The selected compounds were investigated in vitro to determine their binding affinities (KI values) at D2R.
All the HTRF assays were performed using a Tecan Spark plate reader. The respective settings were specifically modified and optimized for the determination of D2R ligand-binding affinities. […] Fluorophores were excited at 320 nm. A Dichroic 510 mirror was used, while lag and integration times of 100 and 400 µs were applied, respectively. Flashes were set to 75. Electronic gain was automatically optimized, while the z-position was optimized based on the well with the highest expected signal. […] The first plate was used to determine the gain and the z-position. Subsequently, the determined values were set manually for the second plate to enable direct comparison between the different plates.
The cells were stored in liquid nitrogen until further use. […] Bromocriptine mesylate (50 mg; CAYM14598-50) was acquired from VWR. The assay was conducted according to the standard operation protocol (SOP) available from PerkinElmer/cisbio. The 96-well plates were incubated at room temperature for 2 h. The 96-well plates were read on a Tecan Spark plate reader (the settings are shown in Section 4.5). The respective concentrations of the dilution series were performed in triplicates. In total, KD determination was performed three times.
The materials described in 4.6 were also used during KI determination of the ligands selected after screening. […] KI was determined following the SOP available at PerkinElmer/cisbio. The 96-well plates were incubated at room temperature in the dark for 2 h. The 96-well plates were read on a Tecan Spark plate reader (the settings are shown in Section 4.5). In total, KI determination was performed twice.

The values below come from article PMC9318694 (Molecules, 2022).

SMILES strings stand for the structures. pKi: −log10 of the molar value.

T1 sequence (P14416 whole entry): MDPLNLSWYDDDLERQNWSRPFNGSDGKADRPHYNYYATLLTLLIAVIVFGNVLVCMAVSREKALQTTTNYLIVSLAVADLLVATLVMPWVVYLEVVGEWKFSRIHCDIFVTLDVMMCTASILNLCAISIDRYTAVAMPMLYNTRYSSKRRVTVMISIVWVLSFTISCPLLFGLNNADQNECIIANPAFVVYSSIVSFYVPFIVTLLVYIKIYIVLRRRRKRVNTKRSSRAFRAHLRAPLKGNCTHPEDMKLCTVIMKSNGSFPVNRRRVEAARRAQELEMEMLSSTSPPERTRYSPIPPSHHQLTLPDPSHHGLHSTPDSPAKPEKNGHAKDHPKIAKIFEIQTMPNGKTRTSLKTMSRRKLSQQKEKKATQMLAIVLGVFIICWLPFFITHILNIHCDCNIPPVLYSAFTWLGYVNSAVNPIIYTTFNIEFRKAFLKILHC

Take `O=C(CCN1CCN(c2ccccc2F)CC1)Nc1cccc(F)c1` [Compound 17]: in test [1], the “Normalized Decrease in Fluorescence ± SD” value was found to be 8.18 ± 3.62 and the “NDF (normalized decreased fluorescence) ± SD” value turned out to be 8.18 ± 3.62. Further, in test [2], the “activity (KI range in words)” value is “micromolar”, the “Fold Difference in comparison to the determined KI of dopamine” value (“Fold Difference in comparison” for short) is listed as 9.0 and the pKi is 5.91.

`CCN(CCC(=O)Nc1cccc(OC)c1)Cc1ccccc1` [Compound 16]: in test [1], the “Normalized Decrease in Fluorescence ± SD” value was 15.74 ± 18.15 and the “NDF (normalized decreased fluorescence) ± SD” value is given as 15.74 ± 18.15. In test [2], the “Fold Difference in comparison” value was found to be 1.1 and the pKi was 5.00.

Regarding `NC(=O)c1ccccc1OCCCN1CCN(c2ccccc2)CC1` [Compound 19], in test [1], the “Normalized Decrease in Fluorescence ± SD” value is recorded as 22.08 ± 6.62 and the “NDF (normalized decreased fluorescence) ± SD” value stood at 22.08 ± 6.62. Moreover, in test [2], the “activity (KI range in words)” value is listed as “submicromolar”, the “Fold Difference in comparison” value was found to be 34.7 and the pKi is 6.49.
